Measured values: patent US20240229156A1, “METHODS FOR USING A HYPOMETHYLATING AGENT TO TREAT DISEASES AND DISORDERS BASED ON GENE MUTATION PROFILES” (Celgene Corporation, priority 2021, published 2024)
“And” between values parts separate entries of the source, which are not always exact repeats. Identical values can stand only once.

Experiments:
[1] = system: patients with AML who were in first remission after intensive chemotherapy; assay: Phase 3 QUAZAR (CC0486-AML-001) trial of CC-486 maintenance: gene mutation, cytogenetic and MRD status correlated with OS and RFS; format: in vivo, human
Description: The correlative analyses of gene mutations with clinical indices (overal survival (OS), relapse-free survival (RFS)) were performed in the CC0486-AML-001 study (the QUAZAR® study). […] In this clinical trial, the key enrollment criteria included newly diagnosed de novo or secondary AML patients, with either intermediate or poor risk (based on the 2012 National Comprehensive Cancer Network (NCCN) classification), were 55 years of age or older, who were in complete remission with or without complete blood count recovery. Patients were also those that were not candidates for hematopoietic stem-cell transplantation. See, ClinicalTrials.gov Identifier: NCT01757535, https://clinicaltrials.gov/ct2/show/NCT01757535, the entirety of which is incorporated herein by reference.
The primary end point was overall survival (OS). Secondary end points included relapse-free survival (RFS).
Bone marrow mononuclear cell (BMMC) DNA was isolated from patients at diagnoses (before consideration for study enrollment) and specific gene mutations (NPM1, FLT3 ITD, FLT3 TKD, CEBPA, MLL, P53, cKIT, NRAS) were determined by investigator report or retrospectively identified by central sequencing for available samples. Cytogenetic risk classification was performed according to the 2012 NCCN Guidelines (source: National Comprehensive Cancer Network Clinical Practice Guidelines in Oncology for Acute Myeloid Leukemia; available at https://www.nccn.org/professionals/physician_gls/PDF/aml.pdf); only intermediate- and poor-risk patients were eligible.
At screening (post-IC/C induction chemotherapy/consolidation, when patients achieved complete remission (CR) or CR with incomplete blood count recovery (CRi), gene mutations were identified by targeted next-generation sequencing (ArcherDX VariantPlex Core Myeloid panel; 37 genes, ArcherDX, Boulder, CO) of DNA isolated from BMMCs. Gene mutational analyses and variants reported were based on the sequence coverages of the 37-gene AML panel. Mutation variants were filtered. Karyotypes from post-IC/C bone marrow samples were determined by MLL (Munich Leukemia Laboratory, Munich, Germany). […] defined as three or more cytogenetic abnormalities in the absence of a WHO designated recurring translocation or inversion; i.e., t(8;21)(q22;q22.1); t(9;11)(p21.3;q23.3); inv(3)(q21.3q26.2) or t(3;3)(q21.3;q26.2); t(6;9)(p23;q34.1); t(v;11;q23.3).
When applicable, statistical analyses were performed using Prism Software (v.8.0.0; GraphPad Software, San Diego, CA) or R statistical computing software environment (v3.6.3). OS and RFS were estimated using Kaplan-Meier methods and P values were calculated using the log-rank test. Cox regression analyses were performed to evaluate the association of gene mutation status and treatment arm with OS and RFS. Gene mutation frequencies and landscape were visualized. Correlative analyses including single gene mutation and co-mutational queries were performed with clinical response. All possible pairings between genes and/or cytogenetic alterations were evaluated for tendency to co-occur or for mutual exclusivity; i.e., a pair of alterations occurring together more frequently or rarely than expected by their individual frequencies, as described by Papaemmanuil et al. (N Engl J Med, 2016). 2×2 contingency tables were generated to test putative associations using Fisher's exact tests and adjusted to control for multiple hypothesis testing. Significant differences between groups were assessed using statistical methods listed in the corresponding Figure footnotes. P-values were considered statistically significant at *p≤0.05, **p≤0.01, or ***p≤0.001.

DNA methylation = settings: clinical studies; cited from earlier work

With `Nc1ncn([C@@H]2O[C@H](CO)C(O)C2O)c(=O)n1` (stereo partly drawn) [CC-486, 4-amino-l-B-D-ribofuranosyl-1,3,5-triazin-2(1H)-one] the “median OS” value ([1]; DNMT3A mutation postIC/C, FIG. 18A, placebo 13.0, p=0.0003) was 24.8 months, the “median RFS” value ([1]; DNMT3A mutation postIC/C, FIG. 18B, placebo 4.7, p<0.0001) was 18.4 months and the “median OS” value ([1]; FIG. 6B (RFS figure), NPM1 mutation at diagnosis, placebo 6.9, p=0.0098) was 23.2 months. The “median OS” value ([1]; FIG. 9B (RFS figure), FLTITD/FLT3-TKD mutation, placebo 4.6, p=0.0475) was 23.1 months, the “median OS” value ([1]; FIG. 10B (RFS figure), NPM1 mutation and FLTITD WT, placebo 7.8, p=0.0572) was 21.1 months and the “median OS” value ([1]; FIG. 10F (RFS figure), NPM1 WT and FLTITD mutation, placebo 4.0, p=0.9446) was 4.5 months. The “median OS” value ([1]; FLTITD/FLT3-TKD mutation NPM1 WT, FIG. 13B, placebo 8.7, p=0.4105) was 11.8 months, the “prolonged RFS, CC-486 vs placebo” value ([1]; FLTITD/FLT3-TKD mutation NPM1 WT, FIG. 13D) was “no statistical significance” and the “median OS” value ([1]; FLTITD/FLT3-TKD mutation at diagnosis, placebo 9.7, p=0.0797) was 28.2 months. The “median RFS” value ([1]; FLTITD/FLT3-TKD wild type, placebo 4.9, p=0.0009) was 10.2 months, the “median OS” value ([1]; FLTITD/FLT3-TKD wild type, placebo 15.2, p=0.0123) was 24.7 months and the “median OS” value ([1]; NPM1 WT and FLTITD mutation, FIG. 10E, placebo 9.7, p=0.9207) was 9.2 months. For the same molecule, the “median OS” value ([1]; NPM1 mutation FLTITD WT, FIG. 10A, placebo 18.0, p=0.0802) was 47.1 months, the “median OS” value ([1]; NPM1 mutation FLTITD/FLT3-TKD WT, FIG. 13A, placebo 20.2, p=0.0763) was 47.1 months and the “median RFS” value ([1]; NPM1 mutation FLTITD/FLT3-TKD WT, FIG. 13C, placebo 7.7, p=0.0827) was 18.4 months. The “median OS” value ([1]; NPM1 mutation FLTITD/FLT3-TKD mutation, FIG. 13A and 13B, placebo 13.4, p=0.0827) was 46.1 months, the “median RFS” value ([1]; NPM1 mutation FLTITD/FLT3-TKD mutation, FIG. 13C and 13D, placebo 4.9, p=0.0278) was 46.1 months and the “median OS” value ([1]; NPM1 mutation and FLTITD mutation, FIG. 10C, placebo 11.5, p=0.0488) was 49.3 months. The “median RFS” value ([1]; NPM1 mutation and FLTITD mutation, FIG. 10D, placebo 4.6, p=0.0368) was 10.2 months, the “median OS” value ([1]; NPM1 mutation and MRD negative status, FIG. 6C) was 47.2 months and the “median OS” value ([1]; NPM1 mutation and MRD positive status, FIG. 6C) was 32.7 months. The “median RFS” value ([1]; NPM1 mutation at diagnosis, FIG. 5C, vs NPM1 wild type p<0.0001) was 23.23 months, the “median OS” value ([1]; NPM1 mutation at diagnosis, placebo 15.9, p=0.0138, vs NPM1 wild type p=0.0006) was 46.09 months and 46.1 months and the “median OS” value ([1]; NPM1 wild type and MRD negative, FIG. 6C) was 24.6 months. The “median OS” value ([1]; NPM1 wild type and MRD positive status, FIG. 6C) was 13.8 months, the “median RFS” value ([1]; NPM1 wild type at diagnosis, placebo 4.6, p=0.0029) was 7.688 months and 7.7 months and the “median OS” value ([1]; NPM1 wild type at diagnosis, placebo 14.6, p=0.0365) was 19.58 months and 19.6 months. For the same molecule, the “OS, CC-486 versus placebo” value ([1]; WT DNMT3A postIC/C) was “No differences”, the “RFS, CC-486 versus placebo” value ([1]; WT DNMT3A postIC/C) was “No differences” and the “OS, CC-486 versus placebo” value ([1]; WT p53 postIC/C) was “increases”. For the same molecule, the “RFS, CC-486 versus placebo” value ([1]; WT p53 postIC/C) was “increases”, the “OS, CC-486 versus placebo” value ([1]; abnormal karyotype (>1 abnormality) postIC/C, FIG. 17C) was “no statistically significant differences” and the “RFS, CC-486 versus placebo” value ([1]; abnormal karyotype (>1 abnormality) postIC/C, FIG. 17D) was “no statistically significant differences”. The “median RFS” value ([1]; complex karyotype (≥4 abnormalities) postIC/C, vs normal karyotype p<0.0001) was 1.906 months, the “median OS” value ([1]; complex karyotype (≥4 abnormalities) postIC/C, vs normal karyotype p=0.0003) was 6.932 months and the “median OS” value ([1]; de novo AML, FIG. 1A, placebo 14.55, p=0.0068) was 23.23 months. The “median RFS” value ([1]; de novo AML, FIG. 1B, placebo 4.90, p=0.0002) was 10.15 months, the “median RFS” value ([1]; intermediate cytogenetic risk at diagnosis, placebo 5.8, p=0.0004) was 11 months and the “median OS” value ([1]; intermediate cytogenetic risk at diagnosis, placebo 16, p=0.0093) was 25 months. The “RFS, CC-486 versus placebo” value ([1]; mutations in SRSF2 alone postIC/C, FIG. 21A, p=0.0809) was “trend for improved RFS”, the “median OS” value ([1]; normal karyotype (no abnormalities) postIC/C, placebo 14.95, p=0.004, vs complex karyotype p=0.0003) was 25.10 months and 25.1 months and the “median RFS” value ([1]; normal karyotype postIC/C, placebo 4.895, p<0.0001, vs complex karyotype p<0.0001) was 10.97 months. The “median OS” value ([1]; other patients (lack NPM1 mutation in combination with FLTITD WT), FIG. 10A, placebo 14.6, p=0.0119) was 20.2 months, the “median RFS” value ([1]; other patients, FIG. 10B, placebo 4.6, p=0.0006) was 7.9 months and the “median OS” value ([1]; other patients, FIG. 10C, placebo 14.9, p=0.0080) was 24.7 months. For the same molecule, the “median RFS” value ([1]; other patients, FIG. 10D, placebo 4.1, p=0.0008) was 10.2 months, the “median OS” value ([1]; other patients, FIG. 10E, placebo 14.9, p=0.0020) was 25.0 months and the “median RFS” value ([1]; other patients, FIG. 10F, placebo 4.9, p<0.0001) was 10.2 months. For the same molecule, the “OS, CC-486 versus placebo” value ([1]; p53 mutation postIC/C, FIG. 18C) was “no statistically significant differences”, the “median RFS” value ([1]; p53 mutation postIC/C, FIG. 18D, placebo 3.5, p=0.0579) was 7.4 months and the “differences in median OS or median RFS, normal versus abnormal karyotype” value ([1]; patients treated with CC-486, abnormal karyotype (1-3 abnormalities), FIG. 16) was “statistically significant differences”. The “median RFS” value ([1]; poor cytogenetic risk at diagnosis, placebo 3.7, p=0.0776) was 4.6 months, the “median OS” value ([1]; poor cytogenetic risk at diagnosis, placebo 7.4, p=0.0602) was 14 months and the “median OS” value ([1]; secondary AML, FIG. 1A, placebo 15.67, p=0.1072) was 28.19 months. For the same molecule, the “median RFS” value ([1]; secondary AML, FIG. 1B, placebo 2.45, p=0.0118) was 4.67 months and the “demethylative effects as compared to VIDAZA” value (DNA methylation) was “more sustainable demethylative effects”.
